Data taken from US20240109918A1, “HETEROCYCLIC COMPOUNDS AND USES THEREOF” (Kumquat Biosciences Inc., priority 2022, published 2024).

Legend:
KRASwt = molecular target: T1, KRASwt (Homo sapiens, UniProt P01116); experiment: Bio-Biochem-PPI-HTRF Ras-SOS1 interaction assay (KRAS wt); format: biochemical; settings: 5 nM
T1 construct: made in house; host or cells: E. coli BL21 (DE3)
Description: (§1) The assay buffer can contain −5 mM HEPES pH 7.4, ˜150 mM NaCl, ˜ 1 mM DTT, 0.05% BSA and 0.0025% (v/v) Igepal. A Ras working solution is prepared in an assay buffer containing typically a suitable amount of the protein construct (e.g., GST-tagged K-Ras mutant) and the FRET donor (e.g., antiGST-Eu(K) from Cisbio, France). A SOS1 working solution is prepared in an assay buffer containing suitable amount of the protein construct (e.g., His-hSOS1) and the FRET acceptor (e.g., anti-6His-XL665 from Cisbio, France). A suitable amount of the protein construct will depend on the range of activity or range of IC50 values being detected or under investigation. For detecting IC50 within a range of 500 nM, the protein constructs of the same range of molarity can be utilized. […] A fixed volume of DMSO with or without test compound is transferred into a 384-well plate. Ras working solution is added to all wells of the test plate. SOS1 working solution is added to all wells except for those that are subsequently filled the inhibitor control solution. Upon incubation for about 10 minutes or longer, the fluorescence is measured with a M1000Pro plate reader (Tecan) using HTRF detection (excitation 337 nm, emission 1:620 nm, emission 2: 665 nm). Compounds are tested in duplicates at different concentrations (for example, 10 μM, 2.5 μM, 0.63 μM, 0.16 μM, 0.04 μM, 0.01 μM test compound). The ratiometric data (i.e., emission 2 divided by emission 1) is used to calculate IC50 values against Ras using GraphPad Prism (GraphPad software). Following this general procedure, samples were tested with or without a subject compound disclosed herein including compounds exemplified in Table 1 to assess their abilities to inhibit a mutant K-Ras relative to another mutant K-Ras or wildtype K-Ras. Signaling output measured in terms of IC50 values can be obtained, a ratio of IC50 against one mutant relative to another mutant can be calculated. For instance, a selective reduction of K-Ras G12D signaling output can be evidenced by a ratio greater than one. In particular, a selective reduction of K-Ras G12D signaling relative to K-Ras WT signaling is evidenced as the ratio of IC50 (against K-Ras WT) to IC50 (against K-Ras G12D) is greater than 1.

KRASG12D = molecular target: T2, KRASG12D (Homo sapiens, UniProt P01116, G12D); experiment: Bio-Biochem-PPI-HTRF Ras-SOS1 interaction assay (KRAS G12D); format: biochemical; settings: 5 nM
T2 construct: made in house; host or cells: E. coli BL21 (DE3)
T2 sequence (P01116 1-188 isoform P01116-2 G12D): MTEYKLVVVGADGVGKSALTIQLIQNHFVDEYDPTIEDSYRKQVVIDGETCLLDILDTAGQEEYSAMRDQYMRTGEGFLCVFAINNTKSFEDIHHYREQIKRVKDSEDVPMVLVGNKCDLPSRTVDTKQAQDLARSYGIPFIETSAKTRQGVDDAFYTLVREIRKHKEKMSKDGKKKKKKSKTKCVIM
Description: as §1

T1 sequence (P01116 1-188 isoform P01116-2): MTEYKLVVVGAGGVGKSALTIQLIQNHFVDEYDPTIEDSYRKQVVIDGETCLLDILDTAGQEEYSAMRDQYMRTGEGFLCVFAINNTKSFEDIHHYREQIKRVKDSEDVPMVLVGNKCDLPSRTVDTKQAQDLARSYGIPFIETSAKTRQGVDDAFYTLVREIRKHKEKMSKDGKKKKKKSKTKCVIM

SMILES | IC50 (KRASwt) | IC50 (KRASG12D)
Cc1ccnc(C(C)C)c1-n1c(=O)nc(N2CCOC3(CNC3)C2)c2cc(F)c(-c3c(O)cccc3F)nc21 [compound 112, 6-fluoro-7-(2-fluoro-6-hydroxyphenyl)-1-(2-isopropyl-4-methylpyridin-3-yl)-4-(5-oxa-2,8-diazaspiro[3.5]nonan-8-yl)pyrido[2,3-d]pyrimidin-2(1H)-one] | ≥ 5 µM | ≥ 5 µM
Nc1nc2c(-c3c(Cl)cc4c(N5CCNCC56CNC6)nc(OCC56CCCN5C[C@H](F)C6)nc4c3F)ccc(F)c2s1 (stereo partly drawn) [compound 226, 4-(6-chloro-8-fluoro-2-(((2R)-2-fluorotetrahydro-1H-pyrrolizin-7a(5H)-yl)methoxy)-4-(2,5,8-triazaspiro[3.5]nonan-5-yl)quinazolin-7-yl)-7-fluorobenzo[d]thiazol-2-amine] | ≥ 5 µM | ≥ 5 µM
COC1CN(C(=O)N2CC3(CCCN(c4nc(O[C@@H](C)[C@@H]5CCCN5C)nc5c(F)c(-c6ccc(F)c7sc(N)c(C#N)c67)c(Cl)cc45)C3)C2)C1 [compound 205, 2-amino-4-(6-chloro-8-fluoro-4-(2-(3-methoxyazetidine-1-carbonyl)-2,6-diazaspiro[3.5]nonan-6-yl)-2-((S)-1-((S)-1-methylpyrrolidin-2-yl)ethoxy)quinazolin-7-yl)-7-fluorobenzo[b] thiophene-3-carbonitrile] | < 5 µM | < 5 µM
N#Cc1c(N)sc2c(F)ccc(-c3c(Cl)cc4c(N5CCCCC6(CN(C(=O)C7CC(C#N)C7)C6)C5)nc(OC[C@@]56CCCN5C[C@H](F)C6)nc4c3F)c12 (stereo partly drawn) [compound 294, 2-amino-4-(6-chloro-4-(2-(3-cyanocyclobutane-1-carbonyl)-2,6-diazaspiro[3.6]decan-6-yl)-8-fluoro-2-(((2R,7aS)-2-fluorotetrahydro-1H-pyrrolizin-7a(5H)-yl)methoxy)quinazolin-7-yl)-7-fluorobenzo[b]thiophene-3-carbonitrile] | < 5 µM | < 5 µM
N#Cc1c(N)sc2c(F)ccc(-c3c(Cl)cc4c(N5CCCCC6(CN(C(=O)N7CCOCC7)C6)C5)nc(OC[C@@]56CCCN5C[C@H](F)C6)nc4c3F)c12 [compound 325, 2-amino-4-(6-chloro-8-fluoro-2-(((2R,7aS)-2-fluorotetrahydro-1H-pyrrolizin-7a(5H)-yl)methoxy)-4-(2-(morpholine-4-carbonyl)-2,6-diazaspiro[3.6]decan-6-yl)quinazolin-7-yl)-7-fluorobenzo[b]thiophene-3-carbonitrile] | < 5 µM | < 5 µM
C#Cc1c(F)ccc2cc(O)cc(-c3ccc4c(N5CCCC6(CNC6)C5)nc(OC[C@@]56CCCN5C[C@H](F)C6)nc4c3F)c12 [compound 161, 5-ethynyl-6-fluoro-4-(8-fluoro-2-(((2R,7aS)-2-fluorotetrahydro-1H-pyrrolizin-7a(5H)-yl)methoxy)-4-(2,6-diazaspiro[3.5]nonan-6-yl)quinazolin-7-yl)naphthalen-2-ol] | < 5 µM | < 5 µM
N#Cc1c(N)sc2c(F)ccc(-c3c(Cl)cc4c(N5CC(F)(F)OC6(CN(C(=O)C7CC7(F)F)C6)C5)nc(OC[C@@]56CCCN5C[C@H](F)C6)nc4c3F)c12 (stereo partly drawn) [compound 167, 2-amino-4-(6-chloro-4-(2-(2,2-difluorocyclopropane-1-carbonyl)-6,6-difluoro-5-oxa-2,8-diazaspiro [3.5]nonan-8-yl)-8-fluoro-2-(((2R,7aS)-2-fluorotetrahydro-1H-pyrrolizin-7a(5H)-yl)methoxy)quinazolin-7-yl)-7-fluorobenzo[b] thiophene-3-carbonitrile] | < 5 µM | < 5 µM

Second part, the compound after the results:

IC50 (KRASwt) | IC50 (KRASG12D) | SMILES
< 5 µM | < 5 µM | N#Cc1c(N)sc2c(F)ccc(-c3c(Cl)cc4c(N5CCCCC6(CN(C(=O)C7CCOCC7)C6)C5)nc(OC[C@@]56CCCN5C[C@H](F)C6)nc4c3F)c12 [compound 300, 2-amino-4-(6-chloro-8-fluoro-2-(((2R,7aS)-2-fluorotetrahydro-1H-pyrrolizin-7a(5H)-yl)methoxy)-4-(2-(tetrahydro-2H-pyran-4-carbonyl)-2,6-diazaspiro[3.6]decan-6-yl)quinazolin-7-yl)-7-fluorobenzo[b]thiophene-3-carbonitrile]
< 5 µM | < 5 µM | N#Cc1c(N)sc2c(F)ccc(-c3c(Cl)cc4c(N5CCCCC6(CN(C(=O)[C@@H]7C[C@H]7C#N)C6)C5)nc(OC[C@@]56CCCN5C[C@H](F)C6)nc4c3F)c12 [compound 263, 2-amino-4-(6-chloro-4-(2-((1R,2R)-2-cyanocyclopropane-1-carbonyl)-2,6-diazaspiro[3.6]decan-6-yl)-8-fluoro-2-(((2R,7aS)-2-fluorotetrahydro-1H-pyrrolizin-7a(5H)-yl)methoxy)quinazolin-7-yl)-7-fluorobenzo[b]thiophene-3-carbonitrile]
< 5 µM | < 5 µM | N#Cc1c(N)sc2c(F)ccc(-c3c(Cl)cc4c(N5CCCCC6(CN(C(=O)[C@H]7C[C@@H]7F)C6)C5)nc(OC[C@@]56CCCN5C[C@H](F)C6)nc4c3F)c12 [compound 284, 2-amino-4-(6-chloro-8-fluoro-4-(2-((1R,2S)-2-fluorocyclopropane-1-carbonyl)-2,6-diazaspiro[3.6]decan-6-yl)-2-(((2R,7aS)-2-fluorotetrahydro-1H-pyrrolizin-7a(5H)-yl)methoxy)quinazolin-7-yl)-7-fluorobenzo[b]thiophene-3-carbonitrile]
< 5 µM | < 5 µM | N#Cc1c(N)sc2c(F)ccc(-c3c(Cl)cc4c(N5CCOCC6(CN(C(=O)[C@H]7CC7(F)F)C6)C5)nc(OC[C@@]56CCCN5C[C@H](F)C6)nc4c3F)c12 [compound 247, 2-amino-4-(6-chloro-4-(2-((R)-2,2-difluorocyclopropane-1-carbonyl)-6-oxa-2,9-diazaspiro[3.6]decan-9-yl)-8-fluoro-2-(((2R,7aS)-2-fluorotetrahydro-1H-pyrrolizin-7a(5H)-yl)methoxy)quinazolin-7-yl)-7-fluorobenzo[b]thiophene-3-carbonitrile]
< 5 µM | < 5 µM | N#Cc1c(N)sc2c(F)ccc(-c3c(Cl)cc4c(N5CCCCC6(CN(C(=O)[C@H]7[C@@H]8COC[C@@H]87)C6)C5)nc(OCC56CCCN5C[C@H](F)C6)nc4c3F)c12 (stereo partly drawn) [compound 192, 4-(4-(2-((1R,5S,6r)-3-oxabicyclo[3.1.0]hexane-6-carbonyl)-2,6-diazaspiro[3.6]decan-6-yl)-6-chloro-8-fluoro-2-(((2R,7aS)-2-fluorotetrahydro-1H-pyrrolizin-7a(5H)-yl)methoxy)quinazolin-7-yl)-2-amino-7-fluorobenzo [b]thiophene-3-carbonitrile]
< 5 µM | < 5 µM | NC(=O)N1CC2(CCN(c3nc(OC[C@@]45CCCN4C[C@H](F)C5)nc4c(F)c(-c5ccc(F)c6sc(N)nc56)c(Cl)cc34)CC2)C1 [compound 157, 7-(7-(2-amino-7-fluorobenzo [d]thiazol-4-yl)-6-chloro-8-fluoro-2-(((2R,7aS)-2-fluorotetrahydro-1H-pyrrolizin-7a(5H)-yl)methoxy)quinazolin-4-yl)-2,7-diazaspiro[3.5]nonane-2-carboxamide]
< 5 µM | < 5 µM | CN(C)CCC(=O)N1CC2(C1)CN(c1nc(OC[C@@]34CCCN3C[C@H](F)C4)nc3c(F)c(-c4ccc(F)c5sc(N)c(C#N)c45)c(Cl)cc13)CCO2 [compound 312, 2-amino-4-(6-chloro-4-(2-(3-(dimethylamino)propanoyl)-5-oxa-2,8-diazaspiro[3.5]nonan-8-yl)-8-fluoro-2-(((2R,7aS)-2-fluorotetrahydro-1H-pyrrolizin-7a(5H)-yl)methoxy)quinazolin-7-yl)-7-fluorobenzo[b]thiophene-3-carbonitrile]
< 5 µM | < 5 µM | CC1(C)CN(c2nc(OC[C@@]34CCCN3C[C@H](F)C4)nc3c(F)c(-c4ccc(F)c5sc(N)nc45)c(Cl)cc23)CC2(CNC2)O1 [compound 166, 4-(6-chloro-4-(6,6-dimethyl-5-oxa-2,8-diazaspiro[3.5]nonan-8-yl)-8-fluoro-2-(((2R,7aS)-2-fluorotetrahydro-1H-pyrrolizin-7a(5H)-yl)methoxy)quinazolin-7-yl)-7-fluorobenzo[d]thiazol-2-amine]
< 5 µM | < 5 µM | N#Cc1c(N)sc2c(F)ccc(-c3c(Cl)cc4c(N5CCOC6(CN(C(=O)[C@H]7CC7(F)F)C6)C5)nc(OC[C@@]56CCCN5C[C@H](F)C6)nc4c3F)c12 (single isomer, unassigned) [compound 176]
